Patent US9789102B2, “H3 receptor antagonist for use in the treatment of alzheimer's disease” (SANOFI, priority 2012, dated 2017)

Assays:
[1] = test system: THY-Tau22 transgenic mice; assay: Cognitive deficits after 6 months of treatment; assay type: in vivo; details: clinically relevant doses
[2] = test system: neurofibrillary tangles (NFTs); assay: NFTs formation by Gallyas silver staining with quantitative image analysis after six months in food; assay type: in vivo, THY-Tau22 mice
Excerpt: 2-(Cyclohexylmethyl)-N-{2-[(2S)-1-methylpyrrolidin-2-yl]ethyl}-1,2,3,4-tetrahydroisoquinoline-7-sulfonamide difumarate monohydrate was administrated as a supplement in food at doses of 0.00034%, 0.0034% and 0.034% for six months in THY-Tau22 and wild type mice as follows: • Tg Veh (n=17) • Tg Active Ingredient—0.034% (n=17) • Tg Active Ingredient—0.0034% (n=17) • Tg Active Ingredient—0.00034% (n=17) • WT Veh (n=17) • WT Active Ingredient—0.034% (n=17) • WT Active Ingredient—0.0034% (n=17) • WT Active Ingredient—0.00034% (n=17) • WT groups treated with Active Ingredient are not used in the biochemical and histological studies.
After mice were decapitated, brains were removed and one hemibrain (used for histopathological studies) was immersion-postfixed for seven days at 4° C. with 4% formaldehyde (Carlo Erba/code 415691). The other hemibrain was prepared for biochemical quantitative measurements.
Post-fixed hemibrains were incubated in phosphate-buffered saline (PBS, P 3813-10PAK, Sigma), transferred to a 20% sucrose solution (code 27480.294—Prolabo) for 48 hours at 4° C. to ensure good cryopreservation of tissues during subsequent freezing. For freezing, hemibrains were immersed for one minute in isopentane solution (Ref. No. 24872-323—Prolabo) cooled with dry ice to between −25° C. and −30° C. and then stored at −25° C.
The entire hemibrains were cut with a cryostat (Microm, HM560). Serial sagittal brain tissue sections were collected onto Superfrost plus microscope glass slides (VWR) and then stored at −20° C. (sections of 20 μm of thickness), or placed in PBS-sodium azide 0.1% (S-2002, Sigma) containing wells to avoid any contamination and stored at 4° C. (sections of 30 μm of thickness).
NFTs are a major defining neuropathological feature of tau pathology in AD. They consist of bundles of paired helical filaments and straight filaments and their main constituent is the hyperphosphorylated microtubule-associated protein tau. Gallyas staining is generally used to stain neurofibrillary pathology (Sun A. et al., J. Histochem Cytochem, 2002, 50, 4, pp. 463-472).
A series of 20 μm hemibrain sections (directly mounted on slides) per mice was used for Gallyas staining (Braak and Braak, 1991, Brain Pathology, 1, pp. 213-216). The detailed protocol is as follows:
The following reagents are used: periodic acid (Sigma Ref. No. P 7875); sodium hydroxide (Prolabo Ref. No. 1737-1000); potassium iodide (Merck Ref. No. 1.05043.1000); silver nitrate (Sigma Ref. No. S.8157); 100% ascetic acid (Prolabo Ref. No. 20 104.298); sodium carbonate, anhydrous (Merck Ref. No. 1.06392-0500); ammonium nitrate (Prolabo Ref. No. 21280-293); silicotungstic acid (Sigma Ref. No. T 2786); 40% formaldehyde (Carlo Erba Ref. No. 415661); sodium thiosulfate (Sigma Ref. No. 21724-500 g).
A first stock solution (No. 1) was prepared by dissolving 50 g of anhydrous sodium carbonate in 1000 ml of deionized water. A second stock solution (No. II) was prepared by dissolving 2 g of ammonium nitrate, 2 g of silver nitrate, and 10 g of silicotungstic acid in 1000 ml of deionized water. A third stock solution (No. III) was prepared by dissolving 2 g of ammonium nitrate, 2 g of silver nitrate, 10 g of silicotungstic acid, and 7.3 ml of commercial 37% formaldehyde solution in 1000 ml of deionized water. The stock solutions are stable and can be stored in opaque containers.
Each of the following steps in the method are carried out with stirring. • 1. Pretreatment: The sections on slides were immersed in a solution of 5% periodic acid in water for 5 minutes, and then rinsed twice for 5 minutes in deionized water. • 2. Argentation: The silver iodide solution is freshly prepared by dissolving 4 g of sodium hydroxide in 50 ml of distilled water and adding 10 g of potassium iodide, which is mixed and allowed to dissolve completely. 3.5 ml of a solution of 1% silver nitrate in water is added while stirring. […]

CN1CCC[C@H]1CCNS(=O)(=O)c1ccc2c(c1)CN(CC1CCCCC1)CC2 [2-(cyclohexylmethyl)-N-{2-[(2S)-1-methylpyrrolidin-2-yl]ethyl}-1,2,3,4-tetrahydroisoquinoline-7-sulfonamide difumarate monohydrate] was tested, and the cognitive deficits [1] was “decreases cognitive deficits”, the “protective effect against pathological neurons (tangles number), all analyzed brain ROIs” value ([2]; 0.00034% in food) was “no protective effect” and the “NFTs formation in CA1 hippocampal subarea, vs vehicle” value ([2]; 0.0034% in food, n=9) was “statistical significant decrease”. The “NFTs formation in cortex, vs vehicle” value ([2]; 0.0034% in food, n=9) was “statistical significant decrease”, the “decrease in the number of tangles, CA1 hippocampal subarea” value ([2]; 0.0034% in food, significant) was −25% and the “decrease of the number of pathological neurons (NFTs, Gallyas), cortex” value ([2]; 0.0034% in food, significant) was −48%. The “decrease in NFTs, amygdala” value ([2]; 0.0034% in food, statistically non-significant) was −19%, the “NFTs formation in CA1 hippocampal subarea, vs vehicle” value ([2]; 0.034% in food, n=9) was “statistical significant decrease” and the “NFTs formation in amygdala, vs vehicle” value ([2]; 0.034% in food, n=9) was “statistical significant decrease”. For the same molecule, the “NFTs formation in cortex, vs vehicle” value ([2]; 0.034% in food, n=9) was “statistical significant decrease”, the “decrease in NFTs, amygdala” value ([2]; 0.034% in food, significant) was −31% and the “decrease in the number of tangles, CA1 hippocampal subarea” value ([2]; 0.034% in food, significant) was −22%. For the same molecule, the “decrease of the number of pathological neurons (NFTs, Gallyas), cortex” value ([2]; 0.034% in food, significant) was −41%.
